Experimental data from patent publication US9182664B2, “Polymerizable fluorine-containing sulfonate, fluorine-containing sulfonate resin, resist composition and pattern-forming method using same” (Central Glass Company, Limited, priority 2010, dated 2015).
Where two headings read alike, the source gives them in different places.

Experiment: Solubility of polymerizable fluorine-containing sulfonic acid onium salts (polymerizable monomers) in PGMEA
Format: physicochemical
Text: The structures and abbreviations of the polymerizable monomers used in this reference example are indicated below. Among others, the monomers PAG-1, PAG-2 and PAG-3 are the polymerizable fluorine-containing sulfonic acid onium salts according to the present invention. [table]

[1] = amount of polymerizable monomer in 100 g of PGMEA

Row | Solubility (g/100 g) [1] | SMILES | Solubility (g/100 g)
1 |  | C=C(C)C(=O)OC(OCC(F)(F)S(=O)(=O)O)(C(=O)OCC)C(F)(F)F (centres unmarked) [PAG-1, Triphenylsulfonium 2-(1-Ethoxycarbonyl-1-methacryloyloxy-2,2,2-trifluoroethoxy)-1,1-difluoroethanesulfonate] | 45 g/100 g
2 |  | C=C(C)C(=O)OC(OCCC(F)(F)C(F)(F)S(=O)(=O)O)(C(=O)OCC)C(F)(F)F (centres unmarked) [PAG-2, Triphenylsulfonium 4-(1-Ethoxycarbonyl-1-methacryloyloxy-2,2,2-trifluoroethoxy)-1,1,2,2-tetrafluorobutanesulfonate] | 55 g/100 g
3 |  | C=C(C)C(=O)OC(OCCCCC(F)(F)C(F)(F)S(=O)(=O)O)(C(=O)OCC)C(F)(F)F (centres unmarked) [PAG-3, Triphenylsulfonium 6-(1-Ethoxycarbonyl-1-methacryloyloxy-2,2,2-trifluoroethoxy)-1,1,2,2-tetrafluorohexanesulfonate] | 90 g/100 g
4 | 10 g/100 g | C=C(C)C(=O)OCC(F)(F)S(=O)(=O)O [PAG-C1, reference compound] | 
5 | 11 g/100 g | C=C(C)C(=O)OCC(=O)OCC(F)(F)S(=O)(=O)O [PAG-C2, reference compound] | 
